Experimental data taken from patent US10335411B2, “Administration of ubiquitin-activating enzyme inhibitor and radiation” (Millennium Pharmaceuticals, Inc., priority 2014, dated 2019).

How the values were obtained:
LU-01-0030 xenograft = LU-01-0030 xenograft model, first study, Compound 1 and radiation; type: in vivo, mice
From the text: The LU-01-0030 xenograft model is a human primary non-small cell lung cancer model. In the first study with the LU-01-0030 model, approximately nine week old female BALB/c nude (Shanghai Sino-British SIPPR/BK Laboratory Animal Co., LTD.) mice were implanted subcutaneously with approximate 30 mm^3 LU-01-0030 tumor slices in the right flank. When the mean tumor volume reached approximately 159 mm^3, the animals were randomized into 10 treatment groups (n=8/group).
Compound 1 [((1R,2R,3S,4R)-2,3-dihydroxy-4-(2-(3-(trifluoromethylthio) ? phenyl)pyrazolo[1,5-a]pyrimidin-7-ylamino)cyclopentyl)methyl sulfamate] is formulated in 10% HPbCD in sterile water and administered intravenously on a BIW (twice/week schedule; Monday and Thursday, i.e. days 0, 3, 7, 10, 14, 17) for 3 weeks in the HN-13-0014 and LU-01-0030 (first study) models. Compound 1 formulation was prepared weekly and stored at room temperature in the dark.
Beam-focused radiation was delivered using a either 1 or 2 Gray dosed on days 0, 1, 7, and 8 or on days 0, 3, 7, and 10 in the HN-13-0014 and LU-01-0030 (first study) models. A Rad Source RS-2000 X-ray irradiator was used for therapy (Rad Source). Before radiation, animals were anesthetized by i.p. injection using 1.0% sodium pentobarbital at 80 mg/kg (Vendor: Sigma). Focused radiation was applied to each mouse at 1 Gy/min.
(§1) Tumors were measured twice weekly using vernier calipers. Tumor volumes were calculated using the following formula: (0.5×[length×width^2]). Treatment groups and dosing/treatment schedules are indicated in Tables 1a, 2a, 3a, 4a, and 5a below. Tumor size and body weight are measured approximately twice a week for the duration of the study. Mice are euthanized when their tumor volume reached approximately 1000 mm^3. Tumor growth continued to be monitored after the dosing period in some studies. In Tables 1a, 2a, 3a, 4a, and 5a tumor volumes are shown for HN-13-0014 (day 21), LU-01-0030 (day 21), the second LU-01-0030 study (day 20), LU-01-0266 (day 20), ST-02-0004 (day 21) and FIN-13-0007 (day 24), respectively. Average tumor volume is reported as a function of time for selected groups of selected studies.
(§2) Measurements from day 0 to day 20, day 21 or day 24 are analyzed as specified in Tables below. All tumor volumes have a value of 1 added to them before log10 transformation. For each animal, the log tumor volume at day 0 is subtracted from the log tumor volume on the subsequent days. This difference vs. time is used to calculate an area under the curve (AUC) for each animal using the trapezoid rule. In instances when an animal in a treatment group is removed early from the study, the last observed tumor value is carried forward through all subsequent time points. The synergy score for the combination of agents A and B is defined as 100*(mean(AUCAB)−mean(AUCA)−mean(AUCB)+mean(AUCctl))/mean(AUCctl): where AUCAB, AUCA, AUCB, and AUCctl are the AUC values for animals in the combination group, the A group, the B group, and the control group, respectively. The standard error of the synergy score is computed based on the variation in the AUC values among the animals. […] If the P-value is above 0.05, then the combination is considered to be additive. If the P-value is below 0.05, and the synergy score is less than zero, then the combination is considered to be synergistic. If the P-value is below 0.05 and the synergy score was greater than zero, but the mean AUC for the combination was lower than the lowest mean AUC among the two single agent treatments, then the combination was sub-additive. If the P-value is below 0.05 and if the synergy score was greater than zero, and the mean AUC for the combination was greater than the mean AUC for at least one of the single agent treatments, then the combination was antagonistic.

LU-01-0266 xenograft = LU-01-0266 xenograft model, Compound 1 and radiation; type: in vivo, mice; settings: for Classification / Synergy score: through Day 20
From the text: The LU-01-0266 xenograft model is a human primary non-small cell lung tumor model. Approximately nine week old female BALB/c nude (Shanghai Sino-British SIPPR/BK Laboratory Animal Co., LTD.) mice were implanted subcutaneously with approximate 30 mm^3 LU-01-0266 tumor slices in the right flank. When the mean tumor volume reached approximately 173 mm^3, the animals were randomized into 10 treatment groups (n=8/group).
Compound 1 [((1R,2R,3S,4R)-2,3-dihydroxy-4-(2-(3-(trifluoromethylthio) ? phenyl)pyrazolo[1,5-a]pyrimidin-7-ylamino)cyclopentyl)methyl sulfamate] is formulated in 10% HPbCD in sterile water and administered intravenously on days 0, 3, 7, 10, 14, 17 in the LU-01-0266 and HN-13-0007 models and on days 0, 3, 8, 11, 15, 18 in the ST-02-0004 model and in the second study with the LU-01-0030 model. Compound 1 formulation was prepared weekly and stored at room temperature in the dark.
Beam-focused radiation was delivered using 2 Gray dosed on days 0, 1, 7, and 8 or on days 0, 3, 7, and 10 in the LU-01-0266 and HN-13-0007 models. In the ST-02-0004 model 2 Gray of radiation was delivered on days 0, 1, 3, and 8. A Rad Source RS-2000 X-ray irradiator was used for therapy (Rad Source). Before radiation, animals were anesthetized by i.p. injection using 1.0% sodium pentobarbital at 80 mg/kg (Vendor: Sigma). Focused radiation was applied to each mouse at 1 Gy/min.
as §1, §2

[1] = 6.25 mg/kg Compound 1 + 2 Gy Radiation D0, 1, 7, 8
[2] = 6.25 mg/kg Compound 1 + 2 Gy Radiation D0, 3, 7, 10
[3] = 6.25 mg/kg Compound 1 IV BIWx3 + 2 Gy Radiation Beam D 0, 1, 7, 8
[4] = 6.25 mg/kg Compound 1 IV BIWx3 + 2 Gy Radiation Beam D 0, 3, 7, 10
[5] = 15 mg/kg Compound 1 + 2 Gy Radiation D0, 1, 7, 8
[6] = 15 mg/kg Compound 1 + 2 Gy Radiation D0, 3, 7, 10
[7] = 15 mg/kg Compound 1 IV BIWx3 + 2 Gy Radiation Beam D 0, 1, 7, 8
[8] = 15 mg/kg Compound 1 IV BIWx3 + 2 Gy Radiation Beam D 0, 3, 7, 10

NS(=O)(=O)OC[C@H]1C[C@@H](Nc2ccnc3cc(-c4cccc(SC(F)(F)F)c4)nn23)[C@H](O)[C@@H]1O [Compound 1, ((1R,2R,3S,4R)-2,3-dihydroxy-4-(2-(3-(trifluoromethylthio)phenyl)pyrazolo[1,5-a]pyrimidin-7-ylamino)cyclopentyl)methyl sulfamate]
Classification (LU-01-0030 xenograft; [1]): Additive (If the P-value is above 0.05, then the combination is considered to be additive) | Synergy score (LU-01-0030 xenograft; [1]): 5.4 | Classification (LU-01-0030 xenograft; [2]): Additive (If the P-value is above 0.05, then the combination is considered to be additive) | Synergy score (LU-01-0030 xenograft; [2]): −22.2 | Tumor Volume Day 21 (LU-01-0030 xenograft; [3]): 101.9 mm^3 | Tumor Volume Day 21 (LU-01-0030 xenograft; [4]): 106.3 mm^3 | Tumor Volume Day 21 (LU-01-0030 xenograft; 6.25 mg/kg Compound 1 IV BIWx3, single agent): 555.7 mm^3 | anti-tumor activity compared to the vehicle control (LU-01-0030 xenograft; 6.25 mg/kg Compound 1 as a single agent): no anti-tumor activity | Classification (LU-01-0030 xenograft; [5]): Synergy (If the P-value is below 0.05, and the synergy score is less than zero, then the combination is considered to be synergistic) | Synergy score (LU-01-0030 xenograft; [5]): −139.6 | Classification (LU-01-0030 xenograft; [6]): Synergy (If the P-value is below 0.05, and the synergy score is less than zero, then the combination is considered to be synergistic) | Synergy score (LU-01-0030 xenograft; [6]): −165.9 | Tumor Volume Day 21 (LU-01-0030 xenograft; [7]): 2.3 mm^3 | Tumor Volume Day 21 (LU-01-0030 xenograft; [8]): 2.8 mm^3 | Tumor Volume Day 21 (LU-01-0030 xenograft; 15 mg/kg Compound 1 IV BIWx3, single agent): 151.3 mm^3 | anti-tumor activity, single agent (LU-01-0030 xenograft; Compound 1 at 15 mg/kg as single agent): tumor stasis | combination effect (LU-01-0030 xenograft; Compound 1 with 2 Gy radiation): additive-to-synergistic combination effect | Tumor Volume Day 20 (LU-01-0266 xenograft; [3]): 181.6 mm^3 | Tumor Volume Day 20 (LU-01-0266 xenograft; [4]): 213.4 mm^3 | Tumor Volume Day 20 (LU-01-0266 xenograft; 6.25 mg/kg Compound 1 IV BIWx3 = D 0, 3, 7, 10, 14, 17, single agent): 1004.5 mm^3 | Tumor Volume Day 20 (LU-01-0266 xenograft; [7]): 77.4 mm^3 | Tumor Volume Day 20 (LU-01-0266 xenograft; [8]): 174.9 mm^3 | Tumor Volume Day 20 (LU-01-0266 xenograft; 15 mg/kg Compound 1 IV BIWx3 = D 0, 3, 7, 10, 14, 17, single agent): 779 mm^3 | combination effect (LU-01-0266 xenograft; Compound 1 with 2 Gy radiation): additive combination effect | anti-tumor activity compared to the vehicle control (LU-01-0266 xenograft; single agent, IV at 6.25 and 15 mg/kg BIW for 3 weeks on Days 0, 3, 7, 10, 14, 17): weak anti-tumor activity | Classification (LU-01-0266 xenograft; [1]): Additive (If the P-value is above 0.05, then the combination is considered to be additive) | Synergy score (LU-01-0266 xenograft; [1]): 14 | Classification (LU-01-0266 xenograft; [2]): Additive (If the P-value is above 0.05, then the combination is considered to be additive) | Synergy score (LU-01-0266 xenograft; [2]): 15 | Classification (LU-01-0266 xenograft; [5]): Additive (If the P-value is above 0.05, then the combination is considered to be additive) | Synergy score (LU-01-0266 xenograft; [5]): −25 | Classification (LU-01-0266 xenograft; [6]): Additive (If the P-value is above 0.05, then the combination is considered to be additive) | Synergy score (LU-01-0266 xenograft; [6]): 12
